From PubChem BioAssay (NCI)
“And” between values parts separate entries of the source, which are not always exact repeats. Equal entries are not always repeated.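 In this assay, cells in 96-well plates receive the compound at five concentrations for 48 hours. Endpoints are linearly interpolated between the surrounding concentrations. Abbreviation: GI50, concentration required for 50% inhibition of growth. Definition used: TGI = concentration required for complete inhibition of growth.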

Assays:
Assay in all cases: DTP human tumour cell line panel, 48 h
M14 melanoma = test system: M14 melanoma
COLO 205 colon = test system: COLO 205 colon
OVCAR-5 ovarian = test system: OVCAR-5 ovarian
SNB-75 CNS = test system: SNB-75 CNS
CCRF-CEM leukemia = test system: CCRF-CEM leukemia
HCC-2998 colon = test system: HCC-2998 colon
ACHN renal = test system: ACHN renal
SF-268 CNS = test system: SF-268 CNS
SNB-19 CNS = test system: SNB-19 CNS
MCF7 breast = test system: MCF7 breast

Compound	GI50 (M14 melanoma)	TGI (M14 melanoma)	GI50 (COLO 205 colon)	TGI (COLO 205 colon)	GI50 (OVCAR-5 ovarian)	TGI (OVCAR-5 ovarian)	GI50 (SNB-75 CNS)	TGI (SNB-75 CNS)	GI50 (CCRF-CEM leukemia)	TGI (CCRF-CEM leukemia)	GI50 (HCC-2998 colon)	TGI (HCC-2998 colon)	GI50 (ACHN renal)	TGI (ACHN renal)	GI50 (SF-268 CNS)	TGI (SF-268 CNS)	GI50 (SNB-19 CNS)	TGI (SNB-19 CNS)	GI50 (MCF7 breast)	TGI (MCF7 breast)
COc1cc(C2CC(c3ccccc3)=NN2C(C)=O)cc(OC)c1OC (stereo not drawn)	2.47 µM	> 34.2 µM	2.92 µM	> 41 µM	70.7 µM	> 100 µM	1.74 µM	13.3 µM	3.09 µM	> 100 µM	6.4 µM	> 74 µM	5.88 µM	> 100 µM	5.37 µM	> 100 µM	5.63 µM	> 100 µM	2.26 µM	> 100 µM
O=C1CCC(N2Cc3c(C#CCCCNC(=O)c4cc5c(o4)C(=O)c4ccccc4C5=O)cccc3C2=O)C(=O)N1 (stereo not drawn)	1.85 µM	3.59 µM	2.3 µM	6.01 µM	15.6 µM	29.7 µM	2.09 µM	4.72 µM	4.42 µM	55.4 µM	2.63 µM	6.63 µM	12.6 µM	26 µM	3.06 µM	11.2 µM	2.65 µM	8.35 µM	1.63 µM	3.73 µM
Cc1cc2cc3cc(C)c(N)cc3[n+](C)c2cc1N	1.8 µM	4.82 µM	1.15 µM	2.87 µM	3.94 µM	16 µM	1.75 µM	14.4 µM	1.36 µM	17.5 µM	1.45 µM	4.26 µM	1.95 µM	8.27 µM	2.03 µM	6.98 µM	1.13 µM	12.4 µM	0.476 µM	6.08 µM
O=C(NCCNc1nccc(-c2c(-c3ccc(F)cc3)nc3sccn23)n1)c1ccccc1	7.97 µM	22.3 µM	1.84 µM	14.6 µM	18.1 µM	99.3 µM	7.27 µM	62.5 µM	3.83 µM	36.3 µM	17.4 µM	40.1 µM	2.98 µM	49.2 µM	12.4 µM	> 100 µM	11.9 µM	> 100 µM	1.43 µM	17.3 µM
N=c1n(Cc2ccccc2)c(N)cc(=O)n1Cc1ccccc1	4.72 µM	17.8 µM	3.97 µM	13.8 µM	4.27 µM	14.9 µM	3.08 µM	16.1 µM	1.63 µM	8.65 µM	4.96 µM	29.1 µM	0.747 µM	5.25 µM	1.37 µM	3.86 µM	5.04 µM	18.2 µM	2.73 µM	18.4 µM
Cc1c(-c2nnc(-c3ccc(F)cc3)o2)nnn1-c1ccnc2c(C(F)(F)F)cccc12	–	–	42.1 µM	> 100 µM	66.7 µM	> 100 µM	19.5 µM	61.2 µM	> 100 µM	> 100 µM	> 100 µM	> 100 µM	30.8 µM	> 100 µM	26.7 µM	> 100 µM	25.9 µM	82.3 µM	20.9 µM	> 100 µM
O=S(=O)(CCNCc1ccc(-c2ccc3ncnc(Nc4ccc(OCc5cccc(F)c5)c(Cl)c4)c3c2)o1)c1ccccc1	> 25 µM	> 25 µM	> 25 µM	> 25 µM	> 25 µM	> 25 µM	> 25 µM	> 25 µM	> 23.1 µM	> 25 µM	> 25 µM	> 25 µM	18.9 µM	> 25 µM	> 25 µM	> 25 µM	> 25 µM	> 25 µM	> 25 µM	> 25 µM
CCCCCCCCCCCCCCCCCC(=O)OCC(COC1OC(CS(=O)(=O)O)C(O)C(O)C1O)OC(=O)CCCCCCCCCCCCCCCCC (stereo not drawn)	–	> 100 µM	–	> 100 µM	–	> 100 µM	–	> 100 µM	–	> 100 µM	–	> 100 µM	–	> 100 µM	–	> 100 µM	–	> 100 µM	–	> 100 µM
S=C(c1ccc2c(c1)OCO2)N1CCN(c2cccc(Cl)c2)CC1	0.472 µM	> 100 µM	0.706 µM	–	7.69 µM	> 100 µM	0.572 µM	> 27.4 µM	1.01 µM	> 21.9 µM	1.27 µM	16.4 µM	13.4 µM	> 100 µM	4.65 µM	> 100 µM	3.13 µM	> 100 µM	0.471 µM	> 100 µM
Brc1ccccc1C=NC12CC3CC(CC(C3)C1)C2	–	> 100 µM	–	> 100 µM	–	> 100 µM	–	> 100 µM	–	> 100 µM	–	> 100 µM	–	> 100 µM	–	> 100 µM	–	> 100 µM	–	> 100 µM
OCC1OC(n2cnc3c2NC=NC[C@H]3O)CC1O (stereo partly drawn)	> 588 µM	500 µM and > 588 µM	> 588 µM	500 µM and > 588 µM	> 588 µM	> 588 µM	> 588 µM	498 µM and > 588 µM	> 588 µM	492 µM and > 588 µM	> 588 µM	402 µM and > 588 µM	> 588 µM	497 µM and > 588 µM	> 588 µM	500 µM and > 588 µM	–	500 µM	–	500 µM
NC1=CC(=O)c2nc3ccccc3c3ccnc1c23	0.342 µM	26.7 µM	–	–	13.8 µM	62 µM	0.552 µM	23.5 µM	11.6 µM	> 100 µM	0.497 µM	11.5 µM	3.15 µM	33 µM	4.26 µM	22.1 µM	3.06 µM	> 93.2 µM	1.29 µM	> 100 µM
